Laboratory results published in patent US11351151B2, “Compound having anticancer activity and preparation method and application” (3D Medicines (Beijing) Co., Ltd., priority 2016, dated 2022).

Legend:
Assay in all cases: Cell proliferation assay (Alamar Blue)
Type in all cases: cell-based
[1] = system: KM12; conditions: Homo sapiens, 144 h; KM12 tumor cell line; 6 days
Procedure: (§1) 1. Instruments and Materials • Thermo 311 CO2 incubator; Haier biosafety cabinet; Molecular Devices microplate reader; Xiangyi brand L530 desktop low speed centrifuge; Olympus IX51 inverted fluorescence microscope, DMEM, RPMI 1640, MEM, DMEM/F12 1:1 medium, Fetal bovine serum, 0.25% trypsin solution, phosphate buffer (Thermo Fisher Shanghai Co., Ltd.); sigma dimethyl sulfoxide (DMSO), resazurin; 54 commercial tumor cell lines (including 26 liver cancer cell lines). Experimental drugs: compounds 1-12 and active drug Linifanib; chemotherapeutic drug Doxorubicin (HY-15142; Shanghai Qianyuan Biomedical Technology Co., Ltd.).
(§2) 2. Experimental Methods • 2.1 Cultivation of different cell lines • 54 cell lines were cultured in a culture medium containing fetal bovine serum and placed in a 5% CO 2 incubator at 37° C. for incubation. The cells were all grown in an adherent state, and the growth was observed under an inverted microscope, and subculture was performed when the cell confluence rate reached 80%-90%. The proportion and quantity of passage were determined by experimental needs. The ratio of subculture of this cell line was generally 1:2^˜1:3. • 2.2 inhibition effect on the proliferation of different tumor cell lines • Cell test: 54 cell lines in logarithmic growth phase were inoculated in 96-well culture plates at 500^˜1×10^4/well (the optimal seeding density of each cell line was determined in pre-experiment), After incubating at 37° C. for 4 h in a 5% CO2 humidification incubator, added 10 μL of compounds 1-12 or Linifanib to each well, and tested 9 drug concentration gradients for each compound (diluted from the highest concentration of the test by 3.16 times). The solubility of each compound was different at a starting concentration of 30 or 100 μM, respectively. The QC reference compound Doxorubicin was added simultaneously to each cell line test, and the final drug concentrations were 10, 3.16, 1, 0.31, 0.1, 0.03, 0.01, 0.003, and 0.001 μM, respectively. In addition, a positive control group (100% inhibition) and a negative control group (0% inhibition) were set at the same time. The drug group was repeated for 2 wells per concentration, and the positive control group and the negative control group were repeated for 6 wells. After the culture was continued for 6 days in the incubator, AlamarBlue test operation was followed; • AlamarBlue test procedure: Incubated with 10 μL of AlamarBlue reagent per well for 1-4 h, shook for 1-2 min, MD microplate reader EX: 560 nm, EM: 590 nm wavelength to measure fluorescence, recorded the results, calculated the cell inhibition rate of the compound of the invention. Cell inhibition rate (%)=(A0% inhibition−A administration)/(A0% inhibition−A100% inhibition)×100%, and then using the method of nonlinear regression using Graph Pad Prism 5.0 or MATILAB software (usually using four parameters) to graph and obtain a drug dose response curve to obtain an IC50 value of the compound of the present invention acting on a cancer cell line.

[2] = system: JHH1; conditions: 144 h; JHH1 liver cancer cell line; 6 days
Procedure: as §1, §2

[3] = system: JHH6; conditions: 144 h; JHH6 liver cancer cell line; 6 days
Procedure: as §1, §2

[4] = system: HuTu80; conditions: Homo sapiens, 144 h; HuTu80 tumor cell line; 6 days
Procedure: as §1, §2

[5] = system: TE-15; conditions: Homo sapiens, 144 h; TE-15 tumor cell line; 6 days
Procedure: as §1, §2

[6] = system: SNU739; conditions: SNU-739, 144 h; SNU739 liver cancer cell line; 6 days
Procedure: as §1, §2

[7] = system: AN3CA; conditions: Homo sapiens, AN3-CA, 144 h; AN3CA (endometrial cells); 6 days
Procedure: as §1, §2

[8] = system: SNU423; conditions: Homo sapiens, SNU-423, 144 h; SNU423 liver cancer cell line; 6 days
Procedure: as §1, §2

[9] = system: Alexander cells; conditions: 144 h, liver cancer cell line, 6 days
Procedure: as §1, §2

[10] = system: NCl-H1703; conditions: 144 h; NCl-H1703 (lung cancer cells); 6 days
Procedure: as §1, §2

[11] = system: DLD1; conditions: Homo sapiens, DLD-1, 144 h; DLD1 tumor cell line; 6 days
Procedure: as §1, §2

[12] = system: SNU387; conditions: Homo sapiens, SNU-387, 144 h; SNU387 liver cancer cell line; 6 days
Procedure: as §1, §2

[13] = system: HCCLM3; conditions: Homo sapiens, 144 h; HCCLM3 tumor cell line; 6 days
Procedure: as §1, §2

[14] = system: NCl-H1648; conditions: 144 h; NCl-H1648 tumor cell line; 6 days
Procedure: as §1, §2

[15] = system: SNU761; conditions: 144 h; SNU761 liver cancer cell line; 6 days
Procedure: as §1, §2

[16] = system: SNU182; conditions: Homo sapiens, SNU-182, 144 h; SNU182 liver cancer cell line; 6 days
Procedure: as §1, §2

[17] = system: KASUMI-1; conditions: Homo sapiens, 144 h; KASUMI-1 (leukemia cells); 6 days
Procedure: as §1, §2

[18] = system: MFM-223; conditions: Homo sapiens, 144 h; MFM-223 tumor cell line; 6 days
Procedure: as §1, §2

[19] = system: HUH7; conditions: Homo sapiens, Huh-7, 144 h; HUH7 liver cancer cell line; 6 days
Procedure: as §1, §2

[20] = system: Li-7; conditions: 144 h; Li-7 liver cancer cell line; 6 days
Procedure: as §1, §2

[21] = system: MG63; conditions: Homo sapiens, MG-63, 144 h; MG63 tumor cell line; 6 days
Procedure: as §1, §2

[22] = system: K562; conditions: Homo sapiens, 144 h; K562 tumor cell line; 6 days
Procedure: as §1, §2

[23] = system: SW620; conditions: Homo sapiens, SW-620, 144 h; SW620 tumor cell line; 6 days
Procedure: as §1, §2

[24] = system: HT55; conditions: Homo sapiens, 144 h; HT55 tumor cell line; 6 days
Procedure: as §1, §2

SMILES | IC50 [1] [µM] | IC50 [2] [µM] | IC50 [3] [µM] | IC50 [4] [µM] | IC50 [5] [µM] | IC50 [6] [µM] | IC50 [7] [µM] | IC50 [8] [µM] | IC50 [9] [µM] | IC50 [10] [µM] | IC50 [11] [µM] | IC50 [12] [µM] | IC50 [13] [µM] | IC50 [14] [µM] | IC50 [15] [µM] | IC50 [16] [µM] | IC50 [17] [µM] | IC50 [18] [µM] | IC50 [19] [µM] | IC50 [20] [µM] | further results
Cc1ccc(F)c(NC(=O)Nc2ccc(-c3cccc4c3c(N)nn4C(=O)CCCCCNC(=O)C[C@H](N)C(=O)O)cc2)c1 [Compound 11] | 28.5 | > 100 | 54.4 | 23.1 | > 100 | 64 | 20.2 | > 100 | 79.5 | 0.89 | 88.4 | > 100 | 74.3 | > 100 | 77 | > 100 | 1.21 | 26.5 | 42.2 | 35.1 | IC50 [21]: 77 µM; IC50 [22]: 33.4 µM; IC50 [23]: 60.3 µM; IC50 [24]: > 100 µM
Cc1ccc(F)c(NC(=O)Nc2ccc(-c3cccc4c3c(N)nn4C(=O)CCCCCCCCCCCNC(=O)C[C@H](N)C(=O)O)cc2)c1 [Compound 12] | > 30 | > 30 | > 30 | > 30 | > 30 | > 30 | 2.08 | 10.9 | > 30 | 0.05 | > 30 | 30.3 | > 30 | > 30 | > 30 | 19.5 | 0.05 | > 30 | > 30 | > 30 | IC50 [21]: > 30 µM; IC50 [22]: > 30 µM; IC50 [23]: > 30 µM; IC50 [24]: > 30 µM
Cc1ccc(F)c(NC(=O)Nc2ccc(-c3cccc4[nH]nc(N)c34)cc2)c1 [Linifanib, reference compound] | 1.39 | 12.2 | 4.11 | 1.85 | 3.6 | 5.45 | 0.19 | 9.24 | 4.09 | 0.02 | 11.6 | 12.3 | 6.67 | 7.17 | 8.98 | 15.2 | 0.01 | 1.72 | 1.67 | 5.43 | IC50 [21]: 1.78 µM; IC50 [22]: 10.8 µM; IC50 [23]: 2.78 µM; IC50 [24]: 22.3 µM
